In PMC7026418, “The kinase polypharmacology landscape of clinical PARP inhibitors” (Scientific Reports, 2020):
Read-outs that look alike come from different tables or passages of the source. Each block holds one compound with its values, some of them ahead of it.

Assays:
Experiment in all cases: biochemical
Parameters in all cases: DiscoveRx KINOMEscan active site-directed competition binding; percent of control kinase bound to immobilised ligand
[1] = target: T1, PRKG2 (Homo sapiens, UniProt Q13237)
T1 sequence (Q13237 1-762): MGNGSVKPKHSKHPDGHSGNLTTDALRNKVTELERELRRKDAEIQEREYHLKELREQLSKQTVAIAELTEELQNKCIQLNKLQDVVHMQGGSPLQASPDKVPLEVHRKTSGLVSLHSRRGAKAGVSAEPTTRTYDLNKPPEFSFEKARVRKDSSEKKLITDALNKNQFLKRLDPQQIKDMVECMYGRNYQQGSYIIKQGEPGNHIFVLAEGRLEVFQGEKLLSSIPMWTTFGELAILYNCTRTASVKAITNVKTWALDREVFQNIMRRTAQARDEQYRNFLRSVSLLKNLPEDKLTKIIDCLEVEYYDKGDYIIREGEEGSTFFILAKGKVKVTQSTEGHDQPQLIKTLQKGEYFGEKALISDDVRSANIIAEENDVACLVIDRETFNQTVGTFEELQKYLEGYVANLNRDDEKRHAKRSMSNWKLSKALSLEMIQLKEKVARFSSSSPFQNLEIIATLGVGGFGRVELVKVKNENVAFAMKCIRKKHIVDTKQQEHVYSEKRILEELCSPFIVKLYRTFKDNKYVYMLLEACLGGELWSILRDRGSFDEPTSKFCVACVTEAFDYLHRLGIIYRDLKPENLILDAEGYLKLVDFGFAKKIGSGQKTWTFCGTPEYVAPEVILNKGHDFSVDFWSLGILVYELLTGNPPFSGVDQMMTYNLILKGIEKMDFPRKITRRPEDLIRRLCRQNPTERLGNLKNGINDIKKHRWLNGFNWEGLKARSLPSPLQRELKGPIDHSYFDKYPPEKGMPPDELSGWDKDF

[2] = target: RIPK2 (Homo sapiens, UniProt O43353)
[3] = target: GSK3A (Homo sapiens, UniProt P49840)
[4] = target: PAK4 (Homo sapiens, UniProt O96013)
[5] = target: T2, RSK4(Kin.Dom.2-C-terminal) (Homo sapiens, UniProt Q9UK32)
T2 construct: gene RPS6KA6; Kin.Dom.2-C-terminal

[6] = target: T3, ZAP70 (Homo sapiens, UniProt P43403)
T3 sequence (P43403 1-619): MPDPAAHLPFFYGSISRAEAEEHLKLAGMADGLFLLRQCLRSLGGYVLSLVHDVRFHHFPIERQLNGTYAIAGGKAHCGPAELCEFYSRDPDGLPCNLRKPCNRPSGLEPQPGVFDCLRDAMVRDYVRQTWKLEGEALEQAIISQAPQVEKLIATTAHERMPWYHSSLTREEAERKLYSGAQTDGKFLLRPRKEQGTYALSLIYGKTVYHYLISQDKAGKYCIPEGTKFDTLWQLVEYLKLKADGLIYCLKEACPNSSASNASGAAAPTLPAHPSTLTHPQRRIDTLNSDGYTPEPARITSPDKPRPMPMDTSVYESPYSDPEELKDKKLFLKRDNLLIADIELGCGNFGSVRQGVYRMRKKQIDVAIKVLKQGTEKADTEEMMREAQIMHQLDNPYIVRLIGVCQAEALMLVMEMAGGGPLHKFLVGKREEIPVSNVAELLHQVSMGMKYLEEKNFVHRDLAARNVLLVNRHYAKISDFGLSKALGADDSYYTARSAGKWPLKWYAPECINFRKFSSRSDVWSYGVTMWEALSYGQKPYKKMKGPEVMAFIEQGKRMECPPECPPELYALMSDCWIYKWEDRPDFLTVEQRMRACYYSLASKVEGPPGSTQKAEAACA

[7] = target: T4, RIOK3 (Homo sapiens, UniProt O14730)
T4 sequence (O14730 1-519): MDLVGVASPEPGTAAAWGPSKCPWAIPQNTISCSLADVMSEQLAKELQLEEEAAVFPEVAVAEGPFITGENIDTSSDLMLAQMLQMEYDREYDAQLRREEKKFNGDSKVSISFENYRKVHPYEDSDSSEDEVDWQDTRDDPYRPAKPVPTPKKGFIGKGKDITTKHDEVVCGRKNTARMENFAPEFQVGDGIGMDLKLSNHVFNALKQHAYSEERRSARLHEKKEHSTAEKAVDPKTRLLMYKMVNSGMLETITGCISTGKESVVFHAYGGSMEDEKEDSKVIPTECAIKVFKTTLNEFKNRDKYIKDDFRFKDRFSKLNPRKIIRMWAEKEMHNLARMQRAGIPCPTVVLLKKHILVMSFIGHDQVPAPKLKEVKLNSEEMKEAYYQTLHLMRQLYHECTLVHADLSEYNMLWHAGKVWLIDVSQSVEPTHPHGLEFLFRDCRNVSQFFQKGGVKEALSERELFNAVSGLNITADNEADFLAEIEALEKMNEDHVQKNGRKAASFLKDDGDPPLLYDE

[8] = target: CSF1R (Homo sapiens, UniProt P07333)
[9] = target: GRK4 (Homo sapiens, UniProt P32298)
[10] = target: LIMK2 (Homo sapiens, UniProt P53671)
[11] = read-out: Niraparib (MK-4827) / %Ctrl @ 10000nM
[12] = read-out: Rucaparib / %Ctrl @ 10000nM, binding competition, % of control
[13] = read-out: Olaparib / %Ctrl @ 10000nM
[14] = read-out: Talazoparib (BMN 673) / %Ctrl @ 10000nM

CSF1R, sequence (P07333 whole entry): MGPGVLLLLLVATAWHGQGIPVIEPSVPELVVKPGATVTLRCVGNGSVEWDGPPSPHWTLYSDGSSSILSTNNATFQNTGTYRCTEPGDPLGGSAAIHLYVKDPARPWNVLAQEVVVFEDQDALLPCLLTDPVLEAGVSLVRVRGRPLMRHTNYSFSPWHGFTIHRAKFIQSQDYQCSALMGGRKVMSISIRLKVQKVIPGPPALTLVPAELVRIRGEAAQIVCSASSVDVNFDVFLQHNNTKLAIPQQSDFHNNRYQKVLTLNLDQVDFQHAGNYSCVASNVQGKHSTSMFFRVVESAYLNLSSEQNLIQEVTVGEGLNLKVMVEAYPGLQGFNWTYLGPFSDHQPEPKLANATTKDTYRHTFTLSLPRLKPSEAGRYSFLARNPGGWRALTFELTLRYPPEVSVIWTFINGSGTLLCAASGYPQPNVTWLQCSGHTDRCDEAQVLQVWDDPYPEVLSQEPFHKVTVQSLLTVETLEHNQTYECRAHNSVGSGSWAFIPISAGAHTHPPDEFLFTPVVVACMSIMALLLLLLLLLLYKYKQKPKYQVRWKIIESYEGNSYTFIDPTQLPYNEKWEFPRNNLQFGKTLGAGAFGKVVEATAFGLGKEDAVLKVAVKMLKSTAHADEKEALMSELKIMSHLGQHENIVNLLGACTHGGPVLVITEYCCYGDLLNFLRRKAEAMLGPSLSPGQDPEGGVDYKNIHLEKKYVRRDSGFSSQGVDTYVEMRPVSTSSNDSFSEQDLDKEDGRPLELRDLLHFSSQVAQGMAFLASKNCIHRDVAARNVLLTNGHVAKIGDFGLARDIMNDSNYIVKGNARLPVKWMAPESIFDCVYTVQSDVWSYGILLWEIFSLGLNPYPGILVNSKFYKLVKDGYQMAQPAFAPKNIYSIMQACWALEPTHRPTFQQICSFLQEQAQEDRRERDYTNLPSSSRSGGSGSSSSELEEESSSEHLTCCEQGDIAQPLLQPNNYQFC
RIPK2, sequence (O43353 whole entry): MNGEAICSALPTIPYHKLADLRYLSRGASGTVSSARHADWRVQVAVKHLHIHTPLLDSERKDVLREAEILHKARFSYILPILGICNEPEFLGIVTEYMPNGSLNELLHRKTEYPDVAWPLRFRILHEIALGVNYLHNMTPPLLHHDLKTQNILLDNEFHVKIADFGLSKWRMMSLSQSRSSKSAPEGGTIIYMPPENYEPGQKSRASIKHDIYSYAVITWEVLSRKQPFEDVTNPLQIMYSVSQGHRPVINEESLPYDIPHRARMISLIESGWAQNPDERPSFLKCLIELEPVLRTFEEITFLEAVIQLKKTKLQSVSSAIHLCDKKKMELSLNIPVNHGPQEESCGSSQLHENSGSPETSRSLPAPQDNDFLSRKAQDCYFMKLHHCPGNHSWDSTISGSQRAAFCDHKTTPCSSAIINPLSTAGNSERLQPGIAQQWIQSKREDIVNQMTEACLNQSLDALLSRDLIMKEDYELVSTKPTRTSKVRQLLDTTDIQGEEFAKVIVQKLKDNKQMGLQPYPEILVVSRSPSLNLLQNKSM
PAK4, sequence (O96013 whole entry): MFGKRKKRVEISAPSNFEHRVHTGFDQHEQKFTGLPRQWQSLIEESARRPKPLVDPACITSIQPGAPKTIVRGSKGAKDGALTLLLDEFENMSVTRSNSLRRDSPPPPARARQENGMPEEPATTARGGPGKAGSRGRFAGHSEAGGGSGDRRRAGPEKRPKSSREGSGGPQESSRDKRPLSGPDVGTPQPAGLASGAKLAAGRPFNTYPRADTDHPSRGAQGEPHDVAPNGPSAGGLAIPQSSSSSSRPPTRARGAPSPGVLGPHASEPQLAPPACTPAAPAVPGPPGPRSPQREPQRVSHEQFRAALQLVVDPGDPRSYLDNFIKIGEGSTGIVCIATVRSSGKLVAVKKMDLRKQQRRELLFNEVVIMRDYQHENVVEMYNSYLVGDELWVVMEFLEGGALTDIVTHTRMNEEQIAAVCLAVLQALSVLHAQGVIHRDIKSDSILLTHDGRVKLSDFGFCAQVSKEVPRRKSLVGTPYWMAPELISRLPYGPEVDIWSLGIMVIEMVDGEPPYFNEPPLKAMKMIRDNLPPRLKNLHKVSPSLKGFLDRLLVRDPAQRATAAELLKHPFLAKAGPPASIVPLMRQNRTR
T2 sequence (Q9UK32 whole entry): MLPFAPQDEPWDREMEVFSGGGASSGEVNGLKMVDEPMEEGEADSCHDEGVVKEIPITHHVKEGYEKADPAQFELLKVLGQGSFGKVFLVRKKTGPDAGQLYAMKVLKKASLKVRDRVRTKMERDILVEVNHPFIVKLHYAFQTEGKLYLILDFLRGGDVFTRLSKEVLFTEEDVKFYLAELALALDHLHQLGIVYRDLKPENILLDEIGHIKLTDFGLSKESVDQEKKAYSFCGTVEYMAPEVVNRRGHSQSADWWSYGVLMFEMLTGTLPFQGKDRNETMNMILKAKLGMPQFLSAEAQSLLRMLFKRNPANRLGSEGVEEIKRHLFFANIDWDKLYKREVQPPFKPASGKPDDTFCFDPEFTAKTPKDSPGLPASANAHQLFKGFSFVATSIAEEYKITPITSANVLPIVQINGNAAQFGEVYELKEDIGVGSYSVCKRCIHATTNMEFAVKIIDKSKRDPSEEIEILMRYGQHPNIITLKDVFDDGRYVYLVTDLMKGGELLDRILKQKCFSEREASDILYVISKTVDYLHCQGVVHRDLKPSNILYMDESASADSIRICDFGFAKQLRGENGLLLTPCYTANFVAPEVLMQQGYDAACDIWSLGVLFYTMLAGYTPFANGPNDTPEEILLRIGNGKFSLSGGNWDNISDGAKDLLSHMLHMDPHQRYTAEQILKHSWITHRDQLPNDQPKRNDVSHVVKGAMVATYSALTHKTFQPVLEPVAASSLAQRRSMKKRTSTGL
LIMK2, sequence (P53671 whole entry): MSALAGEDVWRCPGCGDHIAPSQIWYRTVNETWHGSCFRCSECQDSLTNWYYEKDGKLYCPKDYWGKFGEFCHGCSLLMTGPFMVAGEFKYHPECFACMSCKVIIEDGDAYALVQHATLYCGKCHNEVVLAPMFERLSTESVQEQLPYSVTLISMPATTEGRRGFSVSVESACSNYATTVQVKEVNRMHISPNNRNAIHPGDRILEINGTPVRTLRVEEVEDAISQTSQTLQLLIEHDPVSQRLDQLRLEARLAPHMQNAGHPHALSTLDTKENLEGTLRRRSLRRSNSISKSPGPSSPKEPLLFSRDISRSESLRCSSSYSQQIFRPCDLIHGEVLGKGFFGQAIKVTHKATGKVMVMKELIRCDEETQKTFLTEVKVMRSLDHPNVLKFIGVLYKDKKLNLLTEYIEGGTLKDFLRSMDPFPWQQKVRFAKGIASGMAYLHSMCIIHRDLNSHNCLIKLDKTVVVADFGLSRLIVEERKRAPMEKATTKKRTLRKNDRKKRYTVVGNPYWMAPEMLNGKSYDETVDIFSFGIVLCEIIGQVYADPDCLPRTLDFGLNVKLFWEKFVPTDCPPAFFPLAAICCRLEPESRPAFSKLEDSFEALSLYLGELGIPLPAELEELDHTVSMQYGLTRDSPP
GSK3A, sequence (P49840 whole entry): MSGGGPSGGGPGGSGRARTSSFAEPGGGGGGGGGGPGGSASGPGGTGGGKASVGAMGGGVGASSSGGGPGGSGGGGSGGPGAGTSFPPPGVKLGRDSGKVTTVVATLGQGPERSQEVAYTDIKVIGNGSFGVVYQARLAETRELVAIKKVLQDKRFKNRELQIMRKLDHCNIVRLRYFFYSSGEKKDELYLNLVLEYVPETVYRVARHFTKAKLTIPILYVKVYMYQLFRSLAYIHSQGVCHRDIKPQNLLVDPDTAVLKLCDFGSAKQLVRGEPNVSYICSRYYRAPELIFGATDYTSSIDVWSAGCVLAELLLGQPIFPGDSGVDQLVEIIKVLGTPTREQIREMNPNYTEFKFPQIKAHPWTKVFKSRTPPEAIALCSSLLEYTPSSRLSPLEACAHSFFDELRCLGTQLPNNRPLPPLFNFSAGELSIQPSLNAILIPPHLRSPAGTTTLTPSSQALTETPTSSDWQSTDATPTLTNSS
GRK4, sequence (P32298 whole entry): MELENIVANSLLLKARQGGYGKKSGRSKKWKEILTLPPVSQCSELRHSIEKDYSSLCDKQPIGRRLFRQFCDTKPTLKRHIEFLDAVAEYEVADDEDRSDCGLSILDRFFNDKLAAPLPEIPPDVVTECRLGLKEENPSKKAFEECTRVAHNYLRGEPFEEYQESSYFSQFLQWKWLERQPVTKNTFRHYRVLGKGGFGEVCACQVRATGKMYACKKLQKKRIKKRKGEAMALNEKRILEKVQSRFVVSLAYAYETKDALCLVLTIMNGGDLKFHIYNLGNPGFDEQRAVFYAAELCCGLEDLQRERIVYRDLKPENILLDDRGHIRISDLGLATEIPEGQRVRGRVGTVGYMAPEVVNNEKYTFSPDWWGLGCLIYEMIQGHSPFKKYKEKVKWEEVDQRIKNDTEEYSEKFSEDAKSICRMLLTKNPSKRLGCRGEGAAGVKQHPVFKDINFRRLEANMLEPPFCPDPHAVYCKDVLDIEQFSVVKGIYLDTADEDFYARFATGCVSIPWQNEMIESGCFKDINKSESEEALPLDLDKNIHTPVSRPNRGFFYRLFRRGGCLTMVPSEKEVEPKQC

Compound: NC(=O)c1cccc2cn(-c3ccc([C@@H]4CCCNC4)cc3)nc12 [Niraparib]
percent of control binding at 10 µM [1, 11]: 97%
percent of control binding at 10 µM [2, 11]: 78%
percent of control binding at 10 µM [3, 11]: 48%
percent of control binding at 10 µM [4, 11]: 88%
percent of control binding at 10 µM [5, 11]: 100%
percent of control binding at 10 µM [6, 11]: 100%
percent of control binding at 10 µM [7, 11]: 95%
percent of control binding at 10 µM [8, 11]: 91%
percent of control binding at 10 µM [9, 11]: 62%
percent of control binding at 10 µM [10, 11]: 91%

percent of control binding at 10 µM [1, 12]: 60%
percent of control binding at 10 µM [2, 12]: 88%
percent of control binding at 10 µM [3, 12]: 21%
percent of control binding at 10 µM [4, 12]: 80%
percent of control binding at 10 µM [5, 12]: 82%
percent of control binding at 10 µM [6, 12]: 80%
percent of control binding at 10 µM [7, 12]: 85%
percent of control binding at 10 µM [8, 12]: 94%
percent of control binding at 10 µM [9, 12]: 100%
percent of control binding at 10 µM [10, 12]: 96%
Compound: CNCc1ccc(-c2[nH]c3cc(F)cc4c3c2CCNC4=O)cc1 [Rucaparib]

percent of control binding at 10 µM [1, 13]: 85%
percent of control binding at 10 µM [2, 13]: 93%
percent of control binding at 10 µM [3, 13]: 95%
percent of control binding at 10 µM [4, 13]: 100%
percent of control binding at 10 µM [5, 13]: 92%
percent of control binding at 10 µM [6, 13]: 93%
percent of control binding at 10 µM [7, 13]: 100%
percent of control binding at 10 µM [8, 13]: 95%
percent of control binding at 10 µM [9, 13]: 91%
percent of control binding at 10 µM [10, 13]: 100%
Compound: O=C(c1cc(Cc2n[nH]c(=O)c3ccccc23)ccc1F)N1CCN(C(=O)C2CC2)CC1 [Olaparib]

percent of control binding at 10 µM [1, 14]: 100%
percent of control binding at 10 µM [2, 14]: 100%
percent of control binding at 10 µM [3, 14]: 100%
percent of control binding at 10 µM [4, 14]: 89%
percent of control binding at 10 µM [5, 14]: 97%
percent of control binding at 10 µM [6, 14]: 100%
percent of control binding at 10 µM [7, 14]: 100%
percent of control binding at 10 µM [8, 14]: 99%
percent of control binding at 10 µM [9, 14]: 100%
percent of control binding at 10 µM [10, 14]: 100%
Compound: Cn1ncnc1[C@H]1c2n[nH]c(=O)c3cc(F)cc(c23)N[C@@H]1c1ccc(F)cc1 [Talazoparib]
